The values that follow come from ChEMBL document CHEMBL5550098, “Discovery of N-benzylbenzamide-based allosteric inhibitors of Aurora kinase A” (Bioorg Med Chem, 2024).

As usually defined, the IC50 is the concentration at which inhibition is half-maximal. By GI50 is commonly meant the concentration at which growth is held to half of that of the control. The solubility is the dissolved amount per volume that the medium holds.

In data set [1] the target is T1, Aurora kinase A (Homo sapiens, UniProt O14965).
T1 sequence (O14965 whole entry): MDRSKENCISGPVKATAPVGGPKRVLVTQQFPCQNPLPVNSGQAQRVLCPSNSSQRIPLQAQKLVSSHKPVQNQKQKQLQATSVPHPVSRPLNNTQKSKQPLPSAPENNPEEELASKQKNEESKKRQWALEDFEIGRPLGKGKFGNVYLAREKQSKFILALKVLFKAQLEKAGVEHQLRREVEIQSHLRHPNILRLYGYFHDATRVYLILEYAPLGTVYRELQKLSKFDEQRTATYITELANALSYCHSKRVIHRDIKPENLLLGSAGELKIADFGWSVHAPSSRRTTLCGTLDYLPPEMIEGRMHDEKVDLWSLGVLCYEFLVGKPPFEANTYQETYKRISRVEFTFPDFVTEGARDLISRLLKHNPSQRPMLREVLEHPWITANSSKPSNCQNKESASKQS
Kind of data set: Allosteric inhibition of AurkA (unknown origin).

For data set [2], the system named is HeLa. Nature of the data set: Inhibition of DNA replication during G1 to S transition in nocodazole synchronized human HeLa cells assessed as reduction in Edu content in new synthesized DNA by measuring Edu positive cells at 1 uM measured after 9 hrs by Edu incorporation based flow cytometry analysis (reference value: 16.8%). The class given is functional, cell-based. Also noted: scale not given: the % may be the effect or the level left. (A flow cytometer gives signals particle by particle.)

In data set [3] the test system is HeLa. Nature of the data set: Inhibition of DNA replication during G1 to S transition in nocodazole synchronized human HeLa cells assessed as reduction in Edu content in new synthesized DNA by measuring Edu positive cells at 1 uM measured after 8 hrs by Edu incorporation based flow cytometry analysis (reference value: 19.7%). The class given is functional, cell-based. Also noted: scale not given: the % may be the effect or the level left.

In data set [4] the test system is HT-29. Kind of data set: Induction of cell cycle arrest at G2/M phase in human HT-29 cells at 100 uM measured after 48 hrs by RNase/PI staining based flow cytometry analysis. The class given is functional.
Data set [5] has as its system HCT-116. Nature of the data set: Induction of cell cycle arrest at G2/M phase in human HCT-116 cells at 100 uM measured after 48 hrs by RNase/PI staining based flow cytometry analysis. The data set is classed as functional.
Data set [6] has as its system HeLa. Kind of data set: Induction of cell cycle arrest in human HeLa cells at 100 uM measured after 48 hrs by RNase/PI staining based flow cytometry analysis. The data set is classed as functional.
In data set [7] the test system is HT-29. Nature of the data set: Downregulation of phospho-histone H3 level at Ser10 residue in human HT-29 cells at 20 uM measured at 12 to 24 hrs by Western blot analysis. The class given is functional, cell-based. The conditions noted are these: time 12-24 hrs. Background: A western blot detects proteins with antibodies after separation by electrophoresis.
Data set [8] deals with HeLa. Kind of data set: Inhibition of DNA replication during G1 to S transition in nocodazole synchronized human HeLa cells assessed as reduction in Edu content in new synthesized DNA by measuring Edu positive cells at 100 uM measured after 8 hrs by Edu incorporation based flow cytometry analysis (reference value: 19.7%). The class given is functional. Set-up: scale not given: the % may be the effect or the level left.

For data set [9], the system named is HeLa. Kind of data set: Inhibition of DNA replication during G1 to S transition in nocodazole synchronized human HeLa cells assessed as reduction in Edu content in new synthesized DNA by measuring Edu positive cells at 100 uM measured after 9 hrs by Edu incorporation based flow cytometry analysis (reference value: 16.8%). The data set is classed as functional. Set-up: scale not given: the % may be the effect or the level left.

The test system of data set [10] is HCT-116. Kind of data set: Downregulation of phospho-histone H3 level at Ser10 residue in human HCT-116 cells at 20 uM measured at 12 to 24 hrs by Western blot analysis. The class given is functional, cell-based. The conditions noted are these: time 12-24 hrs.
Data set [11] deals with HeLa. Kind of data set: Antiproliferative activity against human HeLa cells assessed as inhibition of cell growth incubated for 72 hrs in absence of PHA-767491 by celltiter-glo assay. The class given is functional. (In general: Cellular ATP, detected with luciferase, serves as a proxy for viable cell number.)
The subject of data set [12] is PANC-1. Nature of the data set: Induction of cell cycle arrest in human PANC-1 cells at 100 uM measured after 48 hrs by RNase/PI staining based flow cytometry analysis. The data set is classed as functional.
The nature of data set [13]: Permeability of compound at 5 uM by PAMPA assay. The class given is ADME. The conditions noted are these: read-out: permeability.
The subject of data set [14] is A549. Nature of the data set: Induction of cell cycle arrest in human A549 cells assessed as G1/S phase transition at 100 uM measured after 48 hrs by RNase/PI staining based flow cytometry analysis. The data set is classed as functional.
Data set [15] concerns NCI-H358. Kind of data set: Induction of cell cycle arrest in human NCI-H358 cells assessed as G1/S phase transition at 100 uM measured after 48 hrs by RNase/PI staining based flow cytometry analysis. The data set is classed as functional.
Data set [16] relates to HeLa. Kind of data set: cells. The conditions noted are these: Homo sapiens, 72 h.
Data set [17] can be described thus: Aqueous solubility of compound at pH 7.4. The class given is physicochemical.
For data set [18], the system named is HCT-116. Kind of data set: Downregulation of phospho-histone H3 level at Ser10 residue in human HCT-116 cells at 20 uM measured at 48 hrs by Western blot analysis. The data set is classed as functional, cell-based.
The test system of data set [19] is HT-29. Kind of data set: Downregulation of phospho-histone H3 level at Ser10 residue in human HT-29 cells at 20 uM measured at 48 hrs by Western blot analysis. The class given is functional, cell-based.

Converted amounts (≈) assume the structure as drawn. The source made the active and inactive calls. The rule behind the calls is not given here. A value given as a limit tells only on which side of the number the result lay.

Take `CC(Oc1ccc2c(c1)c1ccnc3c4ccccc4c(=O)n2c13)C(=O)NCc1ccc2c(c1)OCO2` (stereo unspecified): in data set [1], the IC50 was under 20 µM.
As to `Cc1cc(Nc2cc(N3CCN(C)CC3)nc(Sc3ccc(NC(=O)C4CC4)cc3)n2)n[nH]1`, the Activity in data set [2] was 22.1%; in [3], 21.7%.
For `COc1ccc(CNC(=O)C(C)Oc2ccc3c(c2)c2ccnc4c5ccccc5c(=O)n3c24)cc1` (stereo unspecified), in data set [1], the IC50 is under 20 µM.
In the case of `CC1=C(C(=O)Nc2ccc(F)cc2F)[C@H](c2cccnc2)C2=C(C[C@@H](c3ccccc3)CC2=O)N1`, the IC50 in data set [1] is under 20 µM.
`O=C(NCc1ccc2c(c1)OCO2)c1cccc(-c2ccncc2)c1`: the result in data set [4], in data set [5], in data set [14], in data set [15], in data set [18] and in data set [19] was Active. Besides, the outcome in data set [6], in [7], in [10] and in [12] was inactive. Besides, the Activity was 7% in data set [8] and 1.6% in data set [9]. Besides, the concentration for 50% growth inhibition (GI50) in data set [11] was found to be 71.7 µM; in data set [16] it was 14 µM. In [13], the Papp at 5 µM worked out at 65.5 ×10⁻⁶ cm/s. The same compound showed a solubility in [17] of 161 µM (≈ 53.5 µg/mL).
